Assay [1] relates to Human immunodeficiency virus 1. As to the kind of experiment: Selectivity ratio of EC50 for antiviral activity against HIV1 harboring E92Q mutation in catalytic core domain of integrase to EC50 for antiviral activity against wild-type HIV1 3B. It is filed as functional.
Assay [2] deals with Human immunodeficiency virus 1. Nature of the assay: Selectivity ratio of EC50 for antiviral activity against HIV1 harboring L74M mutation in catalytic core domain of integrase to EC50 for antiviral activity against wild-type HIV1 3B. It is filed as functional.
Assay [3] concerns Human immunodeficiency virus 1. Nature of the assay: Antiviral activity against 0.001 MOI HIV1 BAL infected in human T lymphocyte cells by p24 antigen ELISA in presence of 10% FBS, HSA and alpha1-AGP. The class given is functional, organism-based. To be noted: Human immunodeficiency virus 1, BAL.
The test system of assay [4] is Human immunodeficiency virus 1. As to the kind of experiment: Selectivity ratio of EC50 for antiviral activity against HIV1 harboring E138K mutation in catalytic core domain of integrase to EC50 for antiviral activity against wild-type HIV1 3B. It is filed as functional.
Assay [5] has as its system Human immunodeficiency virus 1. As to the kind of experiment: Selectivity ratio of EC50 for antiviral activity against GS-9160-resistant HIV1 selected after 5 passages to EC50 for antiviral activity against wild-type HIV1 3B. It is filed as functional.
The subject of assay [6] is Human immunodeficiency virus 1. Nature of the assay: Antiviral activity against HIV1 infected in SupT1 cells assessed as accumulation of late RT products after 12 hrs. It is filed as functional, organism-based. The note with it: Human immunodeficiency virus 1, SUP-T1, 12 h.
The subject of assay [7] is Human immunodeficiency virus 1. As to the kind of experiment: Selectivity ratio of EC50 for antiviral activity against NNRTI-resistant HIV1 harboring RTY181C mutant gene to EC50 for antiviral activity against wild-type HIV1 3B. It is filed as functional.
Assay [8] relates to Human immunodeficiency virus 1. Nature of the assay: Selectivity ratio of EC50 for antiviral activity against HIV1 harboring E92V mutation in catalytic core domain of integrase to EC50 for antiviral activity against wild-type HIV1 3B. The class given is functional.
The subject of assay [9] is Human immunodeficiency virus 1. As to the kind of experiment: Antiviral activity against HIV1 infected in SupT1 cells assessed as accumulation of integrated junction products after 48 hrs by Alu-PCR assay. The class given is functional, organism-based. To be noted: Human immunodeficiency virus 1, SUP-T1, 48 h.
Assay [10] relates to Human immunodeficiency virus 1. As to the kind of experiment: Selectivity ratio of EC50 for antiviral activity against HIV1 harboring T66I mutation in catalytic core domain of integrase to EC50 for antiviral activity against wild-type HIV1 3B. It is filed as functional.
Assay [11] concerns Human immunodeficiency virus 1. Nature of the assay: Selectivity ratio of EC50 for antiviral activity against HIV1 harboring G140S mutation in catalytic core domain of integrase to EC50 for antiviral activity against wild-type HIV1 3B. The class given is functional.
Assay [12] deals with Human immunodeficiency virus 1. As to the kind of experiment: Antiviral activity against HIV1 3B infected in human MT-4 cells by two fold dilution method in presence of 10% FBS. The class given is functional, organism-based. The note with it: Human immunodeficiency virus 1, 3B, MT4.

Here are results for 2 compounds from ChEMBL document CHEMBL1629647, “Preclinical evaluation of GS-9160, a novel inhibitor of human immunodeficiency virus type 1 integrase” (Antimicrob Agents Chemother, 2009).

In the case of `O=C(NCc1ccc(F)cc1)c1nc(N2CCCCS2(=O)=O)c2cccnc2c1O`, the “Ratio EC50” value in assay [1] is 42; in [2], 1; in assay [4], 8; in assay [5] it was 2.7; in [7], 1; in assay [8], 8. In addition, the “Ratio EC50” value in assay [10] and in assay [11] was 2 in each case. Also, the values for the EC50 in assay [3], in assay [6] and in [9] were 60 nM, more than 1000 nM and 1.3 nM, respectively.
Turning to `CN(c1c2c(c(O)c3ncccc13)C(=O)N(Cc1ccc(F)cc1)C2)S(C)(=O)=O`, the “Ratio EC50” value in assay [1] was determined as 32; in [2], 1; in assay [4], 12; in assay [5], 4.3; in [7], 1; in assay [8], 12. Further, the “Ratio EC50” value in assay [10] is on record as 1; in assay [11] it was 2. In addition, the EC50 in assay [3] was 15 nM; in [12] it was 0.7 nM; in assay [6], more than 1000 nM; in assay [9] it was 0.9 nM.
